Results reported in US20080124310A1, “Bead based receptor biology” (priority 2006, published 2008).
“Also recorded” adds a separate entry of the source.

Tests used:
human neutrophils = assay: fMLP induced oxidative burst, cytochrome C reduction assay; type: cell-based
RAW 264.7 macrophages = assay: Phagocytic receptor assay: engulfment of IgG or ligand coated particles by RAW macrophages (foam cell model), confocal; type: cell-based, murine; settings: for engulfment / accumulation of IgG or ligand coated particles: RAW macrophages, confocal
Text: FIG. 25, panels A and B, illustrate respectfully a method for measurement of phagocytic receptors and a method for measuring transfection or delivery of nucleic acids and simultaneous measurement of particle engulfment using a single cell multi label confocal microscope experiment. A direct or surrogate measurement of receptor function or receptor pathway activity must be made in order establish the role of potential therapeutic target proteins in receptor function. IgG, complement, low density lipoprotein (LDL), oxidatively modified LDL (OX-LDL). Acetyl-LDL, apolipoproteins, lipoproteins, lipopolysaccharide (LPS), scavenger and other receptor functions can be measured by the accumulation of particles. The particles may themselves be comprised in part of fluorescent materials or can be directly stained with fluorescent or other colored materials or can be bound by proteins that directly or indirectly permit the attachment of fluorescent, chemiluminescent or other reporter molecules. The beads may be stained in live cells or cells fixed with formalin or paraformaldehyde or organic solvents such as alcohol and acids or by other means. The beads can be stained both before or after internalization with or without the permeabilization of the cells by detergents or organic solvents. The beads may be cells that can be lysed and imaged directly. The cells may be counter stained for the presence of specific proteins using antibodies or may express fluorescent protein constructs or contain fluorescent silencing RNA or DNA constructs or biopolymer modulating agents or drugs (FIG. 25).
We created a foam cell model and quantitative confocal assays for micro particle engulfment by macrophages. The engulfment of particles by macrophages and the generation of free radicals by leukocytes are the key physiological actions that lead to the generation of foam cells that are the center of atherosclerotic plaques. We made a cellular model system of foam cells or activated leukocytes and examine the effects of moderate levels of alcohol over time on the accumulation of particles and generation of free radicals at the site of particle accumulation compared to statins and propranolol. The model systems will consist of RAW macrophages that engulf hydrophobic polystyrene microparticles with or without coating by ligands or mixtures of ligands such as those found in cellular growth media, or free fluorescently labeled DI-LDL, OX-LDL, Acetyl LDL or other. Live cell confocal microscopy was used to quantify the effects of ethanol, compared to lovastatin and propranolol, on particle engulfment.
External particles were stained green with secondary anti rabbit FITC and then cells were permeablized and all particles stained red with secondary anti rabbit CY3. Thus engulfed particles appear red while external particles appear yellow. Beads within the cells carrying only the red signal (engulfed) and not also the green signal {red+green=yellow} (outside) were quantified for accumulation assays using both total fluorescence in the green channel and by counting individual beads in three fields on three independent cover slips for each concentration.
RAW 264.7 macrophages were cultured in alpha MEM with 5% fetal calf serum as described. The effects of lovastatin on IgG and LDL coated micro-particle engulfment at 0, 50 nM, 100 nM, 500 nM, 1 mM and higher was tested. The accumulation of free DI-LDL was quantified directly by its red fluorescence. External particles were stained green with secondary anti rabbit FITC and then cells were permeablized and all particles stained red with secondary anti rabbit CY3. Thus engulfed particles appear red while external particles appear yellow.

PLC = settings: PLC-delta PH domain
Text: The metabolic activation of the receptor pathway at the binding site of modified beads such as ligand coated particles may be detected, measured and quantified using green fluorescence protein (GFP) fused with binding domains specific to different biopolymers, or modified biopolymers or metabolites in including phosphorylations at the site of modified particle or bead or binding.

[1] = system: PLD/PAP-1 pathway (DAG production); assay: DAG production at site of particle engulfment measured with PKC/C2-GFP; type: cell-based, murine
Text: FIG. 28 illustrates use of DAG binding domains to screen for atherosclerosis drugs in macrophages.

PI3K pathway to PIP3 = assay: PIP3 accumulation at site of IgG coated particles measured with AKT/PH-GFP; type: cell-based, murine
Method: FIG. 27 illustrates the use of PiP3 binding PH domains to screen atherosclerosis drugs in macrophages.
The PI3K pathway that converts PIP4, 5 bis-phosphate to PIP3, 4, 5, triphosphate, also called PIP3. PIP3 is measured by the Pleckstrin Homology (PH) domain of the protein kinase AKT, that has a high affinity for PIP3, fused to GFP (AKT/PH-GFP). The accumulation of phosphatidyl inositol triphosphate at the site of IgG coated particles was inhibited using wortamannin, and LY294002 dissolved into the cell experimental media.

PLD pathway = settings: 500 micromolar; cited from earlier work
[2] = in vivo; cited from earlier work
[3] = system: sheep red blood cells phagocytosis; assay: Phagocytosis of sheep red blood cells; type: cell-based; settings: 15 to 30 minute incubation
RAW cells = assay: Cellular cholesterol extraction, filipin staining; type: cell-based, murine; settings: brief incubation
Text: Cholesterol levels were quantified by the esterase assay, oil red- and filipin-staining.

RAW macrophages = assay: Biochemical measurement of protein levels in fractions of drug treated RAW macrophages; type: cell-based, murine; settings: FIG. 67 cytosol fractions
Text: A now well established side effect of ethanol is to prevent heart attack. Thus the common effects of statins, propranolol, and ethanol must be closely linked to the central mechanism that is the most important pharmacological target of heart attack and thus atherosclerosis prevention. It remains possible that the preventative effect of statins results from their effect to inhibit particle engulfment and foam cell formation by macrophages leading to atherosclerotic plaques. We created a foam cell model and quantitative confocal assays for micro particle engulfment by macrophages. The engulfment of particles by macrophages and the generation of free radicals by leukocytes are the key physiological actions that lead to the generation of foam cells that are the center of atherosclerotic plaques. We have made a cellular model system of leukocytes or activated leukocytes or leukocytes treated over time to examine the effects drugs and biopolymer modification materials over time on the activation of receptors at the site of modified or ligand coated particles. The drugs used in this system to examine the kinetics of receptor function at modified particles may result in changes to the cell including changes in gene expression at the level of DNA transcription, RNA production, accumulation or post-transcription processing, mRNA production accumulation or expression all of which may also alter protein expression. We examined the use of these model systems with and without beads as a system to screen the effects of drugs that are known to prevent heart attack and stroke in model of leukocyte cells within atherosclerotic plaques. We observe that drugs that effect receptor associated signaling may also alter gene, RNA or ultimately protein expression in cells resulting in changes in protein levels. Proteins that change levels in response to a drug may be themselves drug target proteins.
The drugs used in the leukocyte model system to examine the kinetics of receptor function at modified particles may result in changes to the cell including changes in gene expression at the level of DNA transcription, RNA production, accumulation or post-transcription processing, mRNA production accumulation or expression all of which may also alter protein expression. We examined the use of these model systems with and without beads as a system to screen the effects of drugs that are known to effect receptor response at or near the cell surface or interior of the cells. We observe that drugs that effect receptor associated signaling may also alter gene, RNA or ultimately protein expression in cells resulting in changes in protein levels. Proteins that change levels in response to a drug may be themselves drug target proteins. […] The RAW leukocyte model foam cells system alone or in combination with the bead based biology system can be used to characterize the effects of receptor or cellular activation in terms of second messengers such as lipid and protein phosphorylation with respect to drug treatment or time in the cytosol of leukocytes (FIG. 67).

[4] = listed as Methyl-beta-cyclo-dextrin
[5] = listed as methyl beta cyclo dextrin

| Compound | fMLP induced oxidative burst (super oxide radicals) (human neutrophils) | engulfment / accumulation of IgG or ligand coated particles (RAW 264.7 macrophages) | accumulation of PIP3 at the site of IgG coated particles (PI3K pathway to PIP3) | further results |
| --- | --- | --- | --- | --- |
| COCCc1ccc(OCC(O)CNC(C)C)cc1 (centres unmarked) [metoprolol] | not as effective as the PAP-1 inhibitor propranolol | do not inhibit particle engulfment | – | – |
| CCCC(=O)Nc1ccc(OCC(O)CNC(C)C)c(C(C)=O)c1 (centres unmarked) [acetbutolol] | not as effective as the PAP-1 inhibitor propranolol | do not inhibit particle engulfment | – | – |
| CC(C)(C)NCC(O)COc1cccc2c1CC(O)C(O)C2 (centres unmarked) [nadolol] | not as effective as the PAP-1 inhibitor propranolol | do not inhibit particle engulfment | – | – |
| CC(C)(C)n1nc(-c2ccc(Cl)cc2)c2c(N)ncnc21 [PP2] | – | inhibited | – | – |
| CCO [ethanol] | inhibited the fMLP induced oxidative burst in a dose dependant manner | prevent particle accumulation | no side effect on the PI3K pathway to PIP3 | PIP2 catalysis by PLC (PLC): neither EtOH, HELSS or propranolol interfere with the catalytic action of PLC; DAG production at the site of ligand coated bead binding [1]: prohibit DAG production |
| CC(C)NCC(O)COc1cccc2ccccc12 (centres unmarked) [propranolol] | inhibited the fMLP induced oxidative burst in a dose dependant manner; also recorded: much greater effect in preventing the generation of free radicals | prevent particle accumulation | no side effect on the PI3K pathway to PIP3 | PIP2 catalysis by PLC (PLC): neither EtOH, HELSS or propranolol interfere with the catalytic action of PLC; DAG production at the site of ligand coated bead binding [1]: prohibit DAG production; effect in in vitro experiments (PLD pathway): little effect; decrease in rate of heart attack [2]: about 35%; engulfment / accumulation of IgG or ligand coated particles (RAW 264.7 macrophages; listed as Propranolol): had the largest effect in preventing the engulfment |
| methyl-beta cyclodextrin [MBCD] | – | no effect on particle engulfment | did not prevent | phagocytosis of sheep red blood cells [3]: no effect; extraction of cellular cholesterol (RAW cells; [4]): highly effective cholesterol scavenger; extraction of cellular cholesterol (RAW cells; [5]): effective to extract cholesterol; engulfment / accumulation of IgG or ligand coated particles (RAW 264.7 macrophages; [4]): no effect on particle accumulation; engulfment / accumulation of IgG or ligand coated particles (RAW 264.7 macrophages; [5]): little inhibitory effect |
| CCCCCCCC(=O)OCC(CO)OC(=O)CCCCCCC (centres unmarked) [DiC8] | – | – | – | reversal of PLD pathway inhibitor effect on particle engulfment (RAW 264.7 macrophages; add-back of PLD pathway product): the effect is reversed by DiC8 |
| C=C1[C@@H](C)[C@H]2[C@H](Cc3ccccc3)NC(=O)[C@]23[C@H](OC(C)=O)/C=C/[C@@](C)(O)C(=O)[C@@H](C)C/C=C/[C@H]3[C@@H]1O [cytochalasin D] | – | – | inhibited | – |
| [F][Al-]([F])([F])[F] [AlF4] | – | – | – | levels of proteins after G protein stimulatory drug (FIG. 67) (RAW macrophages): alter levels of proteins in the membranes |
| CCCCC/C=C\C/C=C\C/C=C\C/C=C\CCCC(=O)C(F)(F)F [AACOCF3] | little effect on the oxidative burst | – | – | DAG production at the site of ligand coated bead binding [1]: Neither MAFP nor AACOCF3 prevent DAG production |
| CC(C)NCC(O)COc1ccc(CC(N)=O)cc1 (centres unmarked) [atenolol] | not as effective as the PAP-1 inhibitor propranolol | do not inhibit particle engulfment | – | – |
| O=C1O/C(=C/Br)CCC1c1cccc2ccccc12 (centres unmarked) [HELSS] | inhibited the fMLP induced oxidative burst in a dose dependant manner | prevent particle accumulation | no side effect on the PI3K pathway to PIP3 | PIP2 catalysis by PLC (PLC): neither EtOH, HELSS or propranolol interfere with the catalytic action of PLC; DAG production at the site of ligand coated bead binding [1]: prohibit DAG production; also recorded: inhibitory effect |
| CC(C)NCC(O)COc1cccc2[nH]ccc12 (centres unmarked) [pindolol] | not as effective as the PAP-1 inhibitor propranolol | do not inhibit particle engulfment | – | – |
